Experiment [1] has as its system MC4R as compared to the MC5R. The settings on record: Nijenhuis et al. Peptides 2003; cited from earlier work.
Experiment [2] relates to MC4R as compared to the MC3R. The settings on record: Nijenhuis et al. 2003; Sutton et al. 2008; cited from earlier work.
The target of experiment [3] is T1, wild-type human melanocortin 4 receptor (WT-hMC4R) (Homo sapiens, UniProt P32245).
T1 construct: expressed in transfected cells
Briefly: Cyclic AMP assay (HTRF), antagonist competition against NDP-α-MSH. The experiment is classed as cell-based. To be noted: HEK293T cells stably expressing WT-hMC4R; inhibition of response to 4 nM NDP-α-MSH; cAMP. On the procedure:
The general procedures described above were used to prepare the examples described below. Reported HPLC retention time are for reverse-phase HPLC (Agilent, 1200 series) using the conditions reported above (See “General” section). Mass spectra were recorded on a 6210 G1969A LC/MSD TOF spectrometer from Agilent Technologies using the LC conditions reported above (See “General” section). IC50 values were obtained using the cAMP assay described below.
IC50 value is the half maximal concentration of the tested compound to inhibit half of the maximal response of the agonist NDP-α-MSH. It is a measurement of the antagonist compound potency.
Intracellular cyclic 3′-5′ adenosine monophosphate (cAMP) accumulation was measured using a competitive immunoassay based on HTRF (Homogeneous Time-Resolved Fluorescence) technology (cAMP dynamic-2, Cis-Bio).
HEK293T stable cell line expressing double-tagged WT-hMC4R construct were collected and washed in cAMP buffer (1×D-PBS pH 7.4, 0.1% glucose). 40,000 cells/well were then dispensed in 96-well plates in cAMP buffer [1×D-PBS, 1% BSA, 0.1% Glucose, 0.75 mM 3-isobutyl-1-methyl-xanthine (IBMX, Sigma)] and incubated either for antagonist competition assay: 1 hour at 37° C. with various concentrations of compound [0.01 nM-10 μM] followed by 30 min incubation at 37° C. with 4 nM of NDP-α-MSH (Sigma) or for agonist assay: 1 hour at 37° C. with various concentrations of compound [0.01 nM-10 μM]. 10,000 cells were transferred in 384-well plates, lysed and incubated with cAMP labeled with the dye d2 and anti-cAMP M-Antidody labeled with Cryptate following the manufacturer's protocol.
Reading of HTRF signal was performed on Artemis TR-FRET plate reader (Cosmo Bio).
All curve fitting was conducted using non-linear regression analyses from PRISM (version 4.0c, GraphPad Inc.) and the determination of Rmax and EC50 or IC50 parameters were obtained from sigmoidal dose-response phase (variable slope) equation.
A cDNA encoding a wild-type human MC4R with a 3 tandem copies of Hemaglutinine (HA) epitote sequence from UMR cDNA resource center was modified using known techniques in the art (e.g., PCR, cloning) to fused in frame at the C-terminal a venus-Yellow Fluorescent Protein (YFP) cDNA.
The resultant cDNA was then subcloned in eukaryotic expression vector, e.g. pcDNA 3.1(+) (Invitrogen).
The double tagged WT-hMC4R was transfected in HEK293T cells with lipofectamine (Invitrogen) following the manufacturer's instructions and permanently transfected clonal cell lines were selected by resistance to the neomycin analog G418.
HEK293T stable cell line expressing wild-type human melanocortin 4 receptor (WT-hMC4R) containing an N-terminal 3×HA epitope tag and an intracellular C-terminal venus-yellow fluorescent protein (v-YFP) were maintained at 37° C. in humidified air containing 5% CO2 in Dulbecoo's modified Eagle's medium (DMEM) supplemented with 10% fetal bovine serum (FBS), 100 U/ml penicillin/streptomycin (DMEM complete/10% FBS). Cells were generally at 70%-80% confluence on the day of assay.

Non-standard residues stand in square brackets, D forms with d. Nle = CCCC[C@H](N)C(=O)O Where only a bound is given, the exact number is not on record here.

T1 sequence (P32245 whole entry): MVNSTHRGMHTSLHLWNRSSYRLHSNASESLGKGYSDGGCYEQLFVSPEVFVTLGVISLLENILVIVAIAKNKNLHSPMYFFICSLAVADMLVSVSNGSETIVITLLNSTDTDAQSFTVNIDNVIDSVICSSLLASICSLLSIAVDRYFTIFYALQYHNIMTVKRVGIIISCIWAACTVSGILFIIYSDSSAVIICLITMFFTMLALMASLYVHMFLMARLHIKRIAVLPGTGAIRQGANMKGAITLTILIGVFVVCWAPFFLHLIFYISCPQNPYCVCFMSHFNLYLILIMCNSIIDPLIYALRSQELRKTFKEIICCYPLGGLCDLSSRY

On to “Ac-Nle-Gly-Lys-D-Phe-Arg-Trp-Gly-NH(2) (Ac-[Nle]GK[dF]RWG-NH2; SMILES CCCC[C@H](NC(C)=O)C(=O)NCC(=O)N[C@@H](CCCCN)C(=O)N[C@H](Cc1ccccc1)C(=O)N[C@@H](CCCNC(=N)N)C(=O)N[C@@H](Cc1c[nH]c2ccccc12)C(=O)NCC(N)=O)”, for which, in experiment [1], the “selectivity for the MC4R as compared to the MC5R (MC4R/MC5R)” value was 110 fold. The “selectivity for the MC4R as compared to the MC3R (MC4R/MC3R)” value in experiment [2] is listed as 90 fold.
Take “Ac-Nle-Gly-Lys-D-NaI(2)-Arg-Trp-Gly-NH(2)”: the “selectivity for the MC4R as compared to the MC5R (MC4R/MC5R)” value in experiment [1] is 109 fold. In experiment [2], the “selectivity for the MC4R as compared to the MC3R (MC4R/MC3R)” value was 34 fold.
In general, IC50 refers to the concentration needed to halve the response being measured. `COc1ccc(-c2nc3cnc(C(=O)N(CCC(C)C)CCC(C)C)cc3n2CCCN2CCCCC2)cc1` [Cpd 63] displayed a half-maximal inhibitory concentration (IC50) in experiment [3] of 100 to 1000 nM.
In the case of `CCCCN(CCCC)C(=O)c1ccc2nc(NC(=O)c3ccccc3)n(CCCN3CCCCC3)c2n1` [Cpd 9], the IC50 in experiment [3] was 1000 to 15000 nM.
Turning to `COc1ccc(Nc2nc3ccc(C(=O)N4CCCC5CCCCC54)nc3n2CCCN2CCCCC2)cc1` (stereo not drawn) [Cpd 23], in experiment [3], the IC50 was in the range of 1000 to 15000 nM.
Same read-out and setting: to `CCCCN(CCCC)C(=O)c1cc2c(cn1)nc(-c1ccc(OC)cc1)n2CCCN1CCCCC1` [Cpd 60] belongs 1000 to 15000 nM.
In the case of `CCCCN(CC#N)C(=O)c1ccc2nc(Nc3ccc(OC)cc3)n(CCCN3CCCCC3)c2n1` [Cpd 20], the concentration for half-maximal inhibition (IC50) in experiment [3] lay within 1000 to 15000 nM.
`CCCN(CCC)C(=O)c1ccc2nc(Nc3ccc(OC)cc3)n(CCCN3CCCCC3)c2n1` [Cpd 13] showed an IC50 in experiment [3] of 100 to 1000 nM.
`COc1ccc(Nc2nc3ccc(C(=O)N4CC5CCC(CC5)C4)nc3n2CCCN2CCCCC2)cc1` [Cpd 19]: the half-inhibitory concentration (IC50) in experiment [3] lay within 1000 to 15000 nM.
As to `CCCCN(CCCC)C(=O)c1cnc2nc(Nc3ccc(OC)cc3)n(CCCN3CCCCC3)c2c1` [Cpd 38], the IC50 in experiment [3] is 1000 to 15000 nM.
As for `CCCCN(CCCC)C(=O)c1cc2c(cn1)nc(NCc1ccccc1)n2CCCN1CCCCC1` [Cpd 52], the IC50 in experiment [3] is below 100 nM.
`CCCCN(CCCC)C(=O)c1ccc2nc(Nc3ccc(C(=O)N4CCOCC4)cc3)n(CCCN3CCCCC3)c2n1` [Cpd 59]: the IC50 in experiment [3] lay in the range of 100 to 1000 nM.
On to `CCCCN(CCCC)C(=O)c1cc2c(cn1)nc(Nc1ccc(C)cc1)n2CCCN1CCCCC1` [Cpd 53], for which the half-maximal inhibitory concentration (IC50) in experiment [3] fell in the range of 100 to 1000 nM.
`COc1ccc(Nc2nc3ccc(-c4cc5ccccc5n4C(=O)OC(C)(C)C)nc3n2CCCN2CCCCC2)cc1` [Cpd 6, tert-butyl 2-(2-((4-methoxyphenyl)amino)-3-(3-(piperidin-1-yl)propyl)-3H-imidazo[4,5-b]pyridin-5-yl)-1H-indole-1-carboxylate]: the IC50 in experiment [3] was 1000 to 15000 nM.
In the case of `CCCCN(CCCC)C(=O)c1ccc2nc(NCc3ccccc3)n(CCCN3CCCCC3)c2n1` [Cpd 10], in experiment [3], the IC50 was in the range of 100 to 1000 nM.
`CCCCN(CCCC)C(=O)c1ccc2nc(Nc3ccc(OC)cc3)n(CC(C)(C)CN(C)C)c2n1` [Cpd 29] came in with a concentration for half-maximal inhibition (IC50) in experiment [3] of 1000 to 15000 nM.
Same read-out and setting: to `CCCCN(CCCC)C(=O)c1cc2c(cn1)nc(Oc1ccc(OC)cc1)n2CCCN1CCCCC1` [Cpd 66] belongs 100 to 1000 nM; to `CCCCN(CCCC)C(=O)c1ccc2nc(Nc3ccc(C)cc3)n(CCCN3CCCCC3)c2n1` [Cpd 46], below 100 nM; to `CCCCN(CCCC)C(=O)c1ccc2nc(Nc3ccc(OC)cc3)n(CCCN3CCCCC3)c2n1` [Cpd 1], below 100 nM.
`CCCCN(CCCC)C(=O)c1ccc2nc(SCC)n(CCCN3CCCCC3)c2n1` [Cpd 61]: the IC50 in experiment [3] fell in the range of 1000 to 15000 nM.
On to `COc1ccc(Nc2nc3ccc(C(=O)N4CC(C)CC(C)C4)nc3n2CCCN2CCCCC2)cc1` (stereo not drawn) [Cpd 2, (3,5-dimethylpiperidin-1-yl)(2-((4-methoxyphenyl)amino)-3-(3-(piperidin-1-yl)propyl)-3H-imidazo[4,5-b]pyridin-5-yl)methanone], for which the 50% inhibitory concentration (IC50) in experiment [3] lay within 1000 to 15000 nM.
Still for that read-out and setting: to `CCCCN(CCCC)C(=O)c1ccc2nc(C)n(CCCN3CCCCC3)c2n1` [Cpd 3, N,N-dibutyl-2-methyl-3-(3-(piperidin-1-yl)propyl)-3H-imidazo[4,5-b]pyridine-5-carboxamide] belongs 1000 to 15000 nM; to `CCCCN(CCCC)C(=O)c1nc(O)c2nc(-c3ccc(OC)cc3)n(CCCN3CCCCC3)c2n1` [Cpd 47], 100 to 1000 nM.
In experiment [3], `CCCCN(CCCC)C(=O)c1ccc2nc(Nc3ccccc3Br)n(CCCN3CCCCC3)c2n1` [Cpd 11] showed a 50% inhibitory concentration (IC50) of 1000 to 15000 nM.
Take `CCCCN(CCC)C(=O)c1ccc2nc(Nc3ccc(OC)cc3)n(CCCN3CCCCC3)c2n1` [Cpd 24]: the half-inhibitory concentration (IC50) in experiment [3] fell in the range of 100 to 1000 nM.
